Reference: PubChem BioAssay AID1259407 (Chemical Carcinogenesis Research Information System (CCRIS), 2018)
Active and inactive are the calls of the source. The rule behind the calls is not given here.

Test system: CCRIS mutagenicity, Ames/micronucleus/aberration tests
Experiment: CCRIS mutagenicity studies
[1] = Test System: AMES SALMONELLA TYPHIMURIUM, Strain/Indicator: TA98, Metabolic Activation: NONE, Method: PREINCUBATION
[2] = Test System: AMES SALMONELLA TYPHIMURIUM, Strain/Indicator: TA98, Metabolic Activation: NONE, Method: STANDARD PLATE
[3] = Test System: AMES SALMONELLA TYPHIMURIUM, Strain/Indicator: TA100, Metabolic Activation: NONE, Method: STANDARD PLATE
[4] = Test System: AMES SALMONELLA TYPHIMURIUM, Strain/Indicator: TA100, Metabolic Activation: NONE, Method: PREINCUBATION

Structure (SMILES): Nc1nnc(/C(=C/c2ccc([N+](=O)[O-])o2)c2ccco2)o1
- mutagenic call (Test System: UDS HUMAN FIBROBLASTS, Strain/Indicator: THY INCORP (NON-S-PHASE), Metabolic Activation: NONE, Method: AUTORADIOGRAPHY): active; positive

Structure (SMILES): COC(=O)N/N=C/c1c[n+]([O-])c2ccccc2[n+]1[O-]
- mutagenic call [1]: active; positive
- mutagenic call (Test System: AMES SALMONELLA TYPHIMURIUM, Strain/Indicator: TA98, Metabolic Activation: S-9, Method: PREINCUBATION): active; positive
- mutagenic call (Test System: E. COLI, Strain/Indicator: WP2 UVRA (PKM101), Metabolic Activation: NONE): active; positive
- mutagenic call (Test System: E. COLI, Strain/Indicator: WP2 UVRA (PKM101), Metabolic Activation: S-9): active; positive

Structure (SMILES): COc1c(O)cc(Cl)cc1Cl
- mutagenic call (Test System: CHINESE HAMSTER V-79, Strain/Indicator: V-79/6-THIOGUANINE, Metabolic Activation: NONE, Method: STANDARD PLATE): inactive; negative

Structure (SMILES): Clc1ccc(Cl)nc1
- mutagenic call (Test System: AMES SALMONELLA TYPHIMURIUM, Strain/Indicator: TA97, Metabolic Activation: NONE, Method: STANDARD PLATE): inactive; negative
- mutagenic call (Test System: AMES SALMONELLA TYPHIMURIUM, Strain/Indicator: TA97, Metabolic Activation: RAT, LIVER, S-9, AROCLOR 1254, Method: STANDARD PLATE): inactive; negative
- mutagenic call [2]: inactive; negative
- mutagenic call (Test System: AMES SALMONELLA TYPHIMURIUM, Strain/Indicator: TA98, Metabolic Activation: RAT, LIVER, S-9, AROCLOR 1254, Method: STANDARD PLATE): inactive; negative
- mutagenic call [3]: inactive; negative
- mutagenic call (Test System: AMES SALMONELLA TYPHIMURIUM, Strain/Indicator: TA100, Metabolic Activation: RAT, LIVER, S-9, AROCLOR 1254, Method: STANDARD PLATE): inactive; negative
- mutagenic call (Test System: AMES SALMONELLA TYPHIMURIUM, Strain/Indicator: TA102, Metabolic Activation: NONE, Method: STANDARD PLATE): inactive; negative
- mutagenic call (Test System: AMES SALMONELLA TYPHIMURIUM, Strain/Indicator: TA102, Metabolic Activation: RAT, LIVER, S-9, AROCLOR 1254, Method: STANDARD PLATE): inactive; negative

Structure (SMILES): CNC(=O)CN(CCN(CCN(CC(=O)O)CC(=O)NC)CC(=O)O)CC(=O)O
- mutagenic call (Test System: AMES SALMONELLA TYPHIMURIUM, Strain/Indicator: TA98, Metabolic Activation: NONE): inactive; negative
- mutagenic call (Test System: AMES SALMONELLA TYPHIMURIUM, Strain/Indicator: TA98, Metabolic Activation: RAT, LIVER, S-9, AROCLOR 1254): inactive; negative
- mutagenic call (Test System: AMES SALMONELLA TYPHIMURIUM, Strain/Indicator: TA100, Metabolic Activation: NONE): inactive; negative
- mutagenic call (Test System: AMES SALMONELLA TYPHIMURIUM, Strain/Indicator: TA100, Metabolic Activation: RAT, LIVER, S-9, AROCLOR 1254): inactive; negative
- mutagenic call (Test System: AMES SALMONELLA TYPHIMURIUM, Strain/Indicator: TA1535, Metabolic Activation: NONE): inactive; negative
- mutagenic call (Test System: AMES SALMONELLA TYPHIMURIUM, Strain/Indicator: TA1535, Metabolic Activation: RAT, LIVER, S-9, AROCLOR 1254): inactive; negative
- mutagenic call (Test System: AMES SALMONELLA TYPHIMURIUM, Strain/Indicator: TA1537, Metabolic Activation: NONE): inactive; negative
- mutagenic call (Test System: AMES SALMONELLA TYPHIMURIUM, Strain/Indicator: TA1537, Metabolic Activation: RAT, LIVER, S-9, AROCLOR 1254): inactive; negative
- mutagenic call (Test System: CHINESE HAMSTER OVARY, Strain/Indicator: CHO-K1-BH4 (HGPRT)/6-THIOGUANINE, Metabolic Activation: NONE): inactive; negative
- mutagenic call (Test System: CHINESE HAMSTER OVARY, Strain/Indicator: CHO-K1-BH4 (HGPRT)/6-THIOGUANINE, Metabolic Activation: RAT, LIVER, S-9, AROCLOR 1254): inactive; negative
- mutagenic call (Test System: E.COLI, Strain/Indicator: WP2 UVRA, Metabolic Activation: NONE): inactive; negative
- mutagenic call (Test System: E.COLI, Strain/Indicator: WP2 UVRA, Metabolic Activation: RAT, LIVER, S-9, AROCLOR 1254): inactive; negative

Structure (SMILES): O=Nc1ccc2ccc3c4c(cc5ccc1c2c53)CCCC4
- mutagenic call [2]: active; positive

Structure (SMILES): Cc1cc(O)c2c(c1O)C(=O)c1ccccc1C2=O
- mutagenic call [1]: inactive; negative
- mutagenic call (Test System: AMES SALMONELLA TYPHIMURIUM, Strain/Indicator: TA98, Metabolic Activation: RAT, LIVER, S-9, PCB, Method: PREINCUBATION): active; positive
- mutagenic call [4]: inactive; negative
- mutagenic call (Test System: AMES SALMONELLA TYPHIMURIUM, Strain/Indicator: TA100, Metabolic Activation: RAT, LIVER, S-9, PCB, Method: PREINCUBATION): active; positive

Structure (SMILES): CCCc1cc2ccccc2c2ccc3c(c12)C1OC1C(O)C3O (centres undefined)
- mutagenic call [4]: inactive; negative

Structure (SMILES): Fc1cccc2c1ccc1ncccc12
- mutagenic call (Test System: AMES SALMONELLA TYPHIMURIUM, Strain/Indicator: TA100, Metabolic Activation: RAT, LIVER, S-9, PHENOBARBITAL AND 5,6-BENZOFLAVONE, Method: PREINCUBATION): active; positive

Structure (SMILES): O=NN(c1ccc([N+](=O)[O-])cc1)C1OC[C@@H](O)[C@@H](O)[C@H]1O (some centres undefined)
- mutagenic call [3]: active; positive
